Data taken from PMC11384632, “Protease-activated CendR peptides targeting tenascin-C: mitigating off-target tissue accumulation” (Drug Delivery and Translational Research, 2024).
Peptide text beside a SMILES is read from it. * marks the point of attachment. 5FAM = O=C1OC2(c3ccc(O)cc3Oc3cc(O)ccc32)c2ccc(C(=O)*)cc21; Ahx = NCCCCCC(=O)O

System: orthotopic WT-GBM-bearing nude mice
Experiment: Biodistribution of monomeric FAM-labeled peptides in WT-GBM mice (anti-FAM DAB immunohistochemistry)
Assay type: in vivo
Details: 200 µg i.v., 1 h circulation, perfused, anti-FAM DAB staining, qualitative, n = 3, Fig. 6d
Source text: Whereas polyvalent targeting systems, such as bacteriophages and AgNPs used in previous sections, exploit multivalent interactions to enhance specificity and binding efficiency, monovalent targeting systems rely on single ligand-receptor interactions for targeted drug delivery. The choice between these two approaches depends on affinity of the targeting ligand and the pharmacokinetic properties of the therapeutic agent. We next studied in vivo biodistribution of monomeric FAM-labeled SKLG, PL3, and scrambled PL3 control (scrPL3) peptides in WT-GBM tumor-bearing mice. The mice were dosed with FAM-labeled peptides followed by perfusion, tissue collection, sectioning, and detection of the peptides using immunohistochemistry with anti-FAM antibodies.
Fig. 6 Biodistribution of monomeric FAM-labeled peptides in WT-GBM mice. Orthotopic GBM-bearing nude mice were i.v. injected with FAM-labeled scrambled PL3 control (scrPL3), PL3 or SKLG peptides. After 1 h of circulation the mice were anesthetized and perfused. Organs were harvested, sectioned, and parallel sections were immunostained with hematoxylin & eosin (H&E) staining or anti-FAM 3, 3'-diaminobenzidine (DAB) staining. (a) H&E of WT-GBM tumor-bearing brain tissue sections. (b) DAB staining of WT-GBM tumor region in the brain. (c) H&E staining of lung tissue sections. (d) DAB staining of lung tissue sections. […]

SMILES: CC(C)C[C@H](NC(=O)[C@H](CCCNC(=N)N)NC(=O)CNC(=O)[C@H](CCCNC(=N)N)NC(=O)CNC(=O)[C@H](C)NC(=O)[C@H](CCCNC(=N)N)NC(=O)CCCCCNC(=O)c1ccc2c(c1)C(=O)OC21c2ccc(O)cc2Oc2cc(O)ccc21)C(=O)N[C@H](C(=O)O)C(C)C [scrPL3] ({5FAM-Ahx}-RAGRGRLV-OH)
- accumulation of FAM-labeled peptide in pulmonary tissue: only a background signal
